Data set [1] can be described thus: Drug plasma level in rat was determined on the last day of dosing at 1,2,4.8 and 24 hr and ED50 was evaluated. In kind it is ADME, organism-based.
For data set [2], the system named is Rattus norvegicus. Put plainly: In vivo immunosuppressive activity was evaluated by surgically implanting the hearts from Brown Norway rats into the peritoneal cavity of histoincompatible Lewis rats and rejection was assessed. The class given is functional.
For data set [3], the system named is Rattus norvegicus. Briefly: In vivo immunosuppressive activity was evaluated by inducing arthritis in lewis rats and measuring the primary lesions after 16 days. As to conditions: 384 h. In kind it is functional.
Data set [4] deals with Rattus norvegicus. Put plainly: In vivo immunosuppressive activity was evaluated by inducing arthritis in lewis rats and measuring the secondary lesions after 16 days. The class given is functional. Particulars: 384 h.
For data set [5], the species on record is Rattus norvegicus. Put plainly: Minimum neurotoxic dose from ED50(rat adjuvant arthritis). The class given is functional.
For data set [6], the species on record is Rattus norvegicus. Put plainly: Minimum neurotoxic dose/Cmax was determined from ED50(rat adjuvant arthritis). In kind it is functional.
Data set [7] is described as follows: Therapeutic index was determined from the ratio of MND to the ED50 Cmax.(rat adjuvant arthritis).
The test system of data set [8] is T-cell. Put plainly: In vitro inhibitory activity against human T-cell production of lymphokine IL-2. The class given is functional, cell-based.
A short description of data set [9]: Therapeutic index is the plasma Cmax ratio of the minimum neurotoxic dose over the ED50 dose in rat adjuvant arthritis. Particulars: read-out: TI.
Data set [10] has as its system T-cell. Put plainly: In vitro inhibitory activity against human T-cell proliferation. The class given is functional, cell-based.

The structures appear in SMILES notation. Some results are limits rather than exact numbers.

The Cmax is the maximum level reached in the sampled fluid or tissue. One may read the ED50 as the dose at which the effect has come halfway, by size or by number of responders. A high value points to a need for a large dose. Usually IC50 stands for the concentration that gives 50% inhibition. Turning to `C=CC[C@@H]1/C=C(\C)C[C@H](C)C[C@H](OC)[C@H]2O[C@@](O)(C(=O)C(=O)N3CCCC[C@H]3C(=O)O[C@H](/C(C)=C/[C@@H]3CC[C@@H](O)[C@H](OC)C3)[C@H](C)[C@@H](O)CC1=O)[C@H](C)C[C@@H]2OC` [TACROLIMUS ANHYDROUS], in [1], the concentration peaked (Cmax) at 24 ng/mL. For the same molecule, the ED100 in data set [2] was found to be 3 mg/kg. The ED50 in data set [3] is 1.9 mg/kg; in [4], 0.6 mg/kg. In addition, the MND in [5] was 12 mg/kg. The MND Cmax in data set [6] came to 52 ng/mL. The Therapeutic index in [7] was determined as 2. In addition, the half-inhibitory concentration (IC50) was 0.9 nM in data set [8] and 0.5 nM in data set [10]. The selectivity ratio in [9] was ~2.
As for `CC[C@@H]1/C=C(\C)C[C@H](C)C[C@H](OC)[C@H]2O[C@@](O)(C(=O)C(=O)N3CCCC[C@H]3C(=O)O[C@H](/C(C)=C/[C@@H]3CC[C@@H](OC4OC(C)C(OC(C)=O)C(OC(C)=O)C4OC(C)=O)[C@H](OC)C3)[C@H](C)[C@@H](O)CC1=O)[C@H](C)C[C@@H]2OC` (stereo partly drawn), the maximum concentration (Cmax) in data set [1] was 254 ng/mL. Besides, the ED100 in data set [2] turned out to be 30 mg/kg. The 50% effective dose (ED50) in [3] was 10 mg/kg; in data set [4], 2.3 mg/kg. The MND in data set [5] is > 300 mg/kg. Besides, in data set [6], the MND Cmax is > 2910 ng/mL. Also, the Therapeutic index in data set [7] was > 10. For the same molecule, the IC50 in data set [8] amounted to 11 nM; in data set [10], 10.4 nM. For the same molecule, the selectivity ratio in [9] was > 10.
Regarding `C/C=C/C[C@@H](C)[C@@H](O)[C@H]1C(=O)N[C@@H](CC)C(=O)N(C)CC(=O)N(C)[C@@H](CC(C)C)C(=O)N[C@@H](C(C)C)C(=O)N(C)[C@@H](CC(C)C)C(=O)N[C@@H](C)C(=O)N[C@H](C)C(=O)N(C)[C@@H](CC(C)C)C(=O)N(C)[C@@H](CC(C)C)C(=O)N(C)[C@@H](C(C)C)C(=O)N1C` [CYCLOSPORINE], in [2], the ED100 was 15 mg/kg. The values for the ED50 in data set [3] and in [4] were 3.4 mg/kg and 0.7 mg/kg, respectively.

(Values after ChEMBL document CHEMBL1128291, “The C-32 triacetyl-L-rhamnose derivative of ascomycin: a potent, orally active macrolactone immunosuppressant” (J Med Chem, 1995).)
